PubChem BioAssay AID504765 (Sanford-Burnham Center for Chemical Genomics, 2011)
Calls of active or inactive are those of the source. The rule behind the calls is not given here.

Target: glucose-6-phosphate dehydrogenase-6-phosphogluconolactonase (Plasmodium falciparum 3D7)
Experiment: concentration-dependent PfGluPho enzyme inhibition – biochemical, fluorescence intensity, dose response (AID 504765)
Details: Recombinant PfG6PD enzyme, fluorescence intensity (NADPH)

SMILES | IC50
COc1ccc(CCn2c(NN=C3CCCCC3)nc3c2c(=O)[nH]c(=O)n3C)cc1 | 1.65 µM
Cc1ccccc1OCC(=O)N/N=C/c1ccc(Sc2nc3ccccc3s2)o1 | 16.8 µM
COC(=O)CCC(=O)Nc1sc(Cc2ccccc2)c(C)c1C(N)=O | inactive
O=C(O)c1ccc(-n2c(-c3cc(-c4ccco4)[nH]n3)n[nH]c2=S)cc1 | inactive
CN(C)c1ccc(C=c2c3cc([N+](=O)[O-])ccc3n3c2cc(-c2ccccc2)[n+]3C)cc1 | 8.44 µM
Cc1cc(C)c(S(=O)(=O)Nc2cc(SCC(=O)O)c(O)c3ccccc23)cc1C | 1.19 µM
CC1(OC(=O)C2CCCC2)C(=O)C=C2C=C(c3ccsc3)N(CCc3c[nH]c4ccccc34)C=C2C1=O (stereo not drawn) | 4.97 µM
COc1cc(N)c2ncccc2c1SC | inactive
C=CCSc1nc2sc3c(c2c(=O)n1CC)CCc1ccccc1-3 | inactive
O=S(=O)(Nc1cc(Sc2ncn[nH]2)c(O)c2ccccc12)c1ccccc1 | 0.741 µM
CCOc1cc(CNc2ccc(N3CCCC3)cc2)cc(Cl)c1OC | 3.87 µM
C=CCN1CCc2cccc3c2[C@H]1Cc1ccc(O)c(O)c1-3 | 19.6 µM
COc1ccc(NS(=O)(=O)c2ccc(N3CCCC3)c(NC(=S)Nc3cccc(C)c3C)c2)cc1 | inactive
CN(C)c1cccc2c1c(NC(=O)c1ccc(Cl)cc1)nn2C | 8.65 µM
C=CCN=c1scc(-c2ccco2)n1/N=C/c1ccc(O)c(O)c1O | inactive
CCN1CCN(c2nc(C)nc3c2sc(=S)n3C)CC1 | 15.1 µM
CC1CCc2c(nc3sc4c(c3c2N)CCCC4)C1 (stereo not drawn) | 14.9 µM
C=CCOc1c(Cl)cc(CNc2ccc3[nH]c(=O)[nH]c3c2)cc1OC | 7.9 µM
CC1(OC(=O)C2CCCC2)C(=O)C=C2C=C(c3ccsc3)N(Cc3ccc4c(c3)OCO4)C=C2C1=O (stereo not drawn) | 11.1 µM
Cc1ccccc1N/C(SCc1cccc(Br)c1)=C(/C#N)C(N)=O | 5.9 µM
C[C@H](NC(=O)c1cc2c(cn1)[nH]c1ccccc12)C(=O)O | inactive
CCc1cc(-c2n[nH]c(C)c2-c2ccccc2Cl)c(O)cc1OC | 7.52 µM
CCN=c1scc(C)n1/N=C/c1ccc(O)c(O)c1O | 6.91 µM
O=c1c2cc(C(F)(F)F)ccc2sn1-c1ccccc1 | 3.89 µM
Cc1cc(O)c(C(C)C)cc1N=Cc1ccc([N+](=O)[O-])cc1 | 6.99 µM

SMILES | IC50
NCCc1cc(O)c(O)cc1O | 3.51 µM
CC(=O)Nc1ccc2c(=O)n(-c3ccccc3)sc2c1 | 8.52 µM
O=c1c2ccc(F)cc2sn1-c1ccccc1 | 1.98 µM
CCOC(=O)c1ccc(/[N+]([O-])=C/c2ccccc2)cc1 | 2.69 µM
COc1ccc(N=C2C(=S)N(c3ccc(OC)cc3)C(=NS(=O)(=O)c3ccccc3)N2c2ccccc2)cc1 | 2.38 µM
O=C(CSc1nc2ccc(Cl)cc2[nH]1)NC1CCCc2ccccc21 (stereo not drawn) | 15.6 µM
Cc1ccc(NC(=O)c2cc(N3C(=O)C=CC3=O)ccc2N2CCOCC2)cc1 | 15.7 µM
Cc1c(Cl)c([N+](=O)[O-])nn1Cc1ccc(C(=O)N/N=C\c2cccc(Br)c2)o1 | 9.37 µM
COc1ccc(Nc2cc(C)c3c(O)cccc3n2)cc1 | 5.06 µM
Cc1ccc(SC2=C(Sc3ccc(C)cc3)C(=O)c3ccccc3C2=O)cc1 | 11 µM
CC(=O)Nc1cc(OC(C)=O)c2nonc2c1OC(C)=O | 11.9 µM
C#CCCc1cscc1/C=[N+](\[O-])c1ccc(C(=O)OCC)cc1 | 2.98 µM
COc1ccc(-n2c(=S)[nH]c3c(sc(=S)n3-c3ccccc3)c2=O)c(OC)c1 | inactive
COc1cc(N)c2ncsc2c1 | 15.5 µM
C=CCOc1ccc(CNc2ccc3[nH]c(=O)[nH]c3c2)cc1OC | 6.61 µM
CN1CC[C@@]2(C)c3cc(O)ccc3N(C)[C@@H]12 | 1.52 µM
CCOc1ccccc1C=NNC(=O)CCCCC(=O)NN=Cc1ccccc1OCC | 7.77 µM
Clc1ccc(N=c2ssnc2Cl)nc1 | inactive
O=[N+]([O-])c1c(NCCO)cc(Sc2nc3ccccc3s2)c2nonc12 | 10.2 µM
OCCN1CCN(C(=S)c2ccc(Cl)c(Cl)c2)CC1 | 12.5 µM
CC(=O)Nc1ccc2c(c1)Cc1cc(N3C(=O)C=CC3=O)ccc1-2 | 19.3 µM
NS(=O)(=O)c1ccc(N/N=C/c2ccc(O)c(O)c2O)c([N+](=O)[O-])c1 | 5.7 µM
Oc1ccc(/C=N/N=C(c2ccccc2)c2ccccc2)c(O)c1O | 13.6 µM
CC(=NNC(=S)N1CCN(c2ccccn2)CC1)c1nccs1 | 5.6 µM
Cc1ccc(/C=C/C(=O)N2CCN(S(=O)(=O)c3ccc(C)c(C)c3)CC2)o1 | inactive

SMILES | IC50
Cc1cc(O)c(C(C)C)cc1N=Cc1ccccc1[N+](=O)[O-] | 3.44 µM
Nc1ccc(S(=O)(=O)c2cc(O)c3ccccc3c2O)cc1 | 5.79 µM
Cc1ccc(NC(=O)Cn2sc3nc(C)cc(C)c3c2=O)c(Cl)c1 | 2.09 µM
COc1ccc(N2CSC3=C(C#N)C(c4cc(OC)c(OC)cc4OC)CC(=O)N3C2)c(OC)c1 (stereo not drawn) | 3.13 µM
CC(NC1=CC(=O)c2cccnc2C1=O)C(O)c1ccccc1 (stereo not drawn) | 4.03 µM
Cc1no[n+]([O-])c1COc1cccc(/C=N/Nc2nncn2N)c1 | 6.7 µM
CC1=CC(C)(C)Nc2ccc(OC(=O)CN3C(=O)CCC3=O)cc21 | 12 µM
COc1cccc(CNc2ccc3[nH]c(=O)[nH]c3c2)c1OCc1ccccc1Cl | inactive
CC(=O)Nc1ccc2sn(-c3ccccc3)c(=O)c2c1 | 2.53 µM
CN(C)c1ccc2nc3ccc(=O)cc-3sc2c1 | 13.2 µM
COC1(OC)C=CC(=O)C=C1NC(=O)c1ccccc1OC(C)=O | 9.27 µM
CN=c1scc(C)n1/N=C/c1ccc(O)c(O)c1O | 3.98 µM
CCCN1CCc2cccc3c2[C@H]1Cc1ccc(O)c(O)c1-3 | 15 µM
COc1ccc(-c2cn3cc(C)ccc3n2)cc1Br | 9.91 µM
COc1cccc(CNc2ccc3[nH]c(=O)[nH]c3c2)c1OCc1ccc(F)cc1 | inactive
CC(Cc1ccc(O)c(O)c1)C(C)Cc1ccc(O)c(O)c1 (stereo not drawn) | inactive
COc1ccc(C(=O)c2c(C(F)(F)F)oc3c2C(=O)c2ccccc2C3=O)cc1 | inactive
C=CCSc1nnc(NC(=O)c2ccc(Cl)nc2)s1 | 4.05 µM
CCOC(=O)c1sc(NC(=O)CSc2nnc(Cc3ccccc3)o2)c(C#N)c1C | inactive
Cc1ccc(C(=O)Nc2nnc(S(=O)(=O)N3CCC(C)CC3)s2)cc1 | inactive
Cc1cc(C)c(NC(=S)NCC2CCN(C(C)c3ccccc3)C2)c(C)c1 (stereo not drawn) | 14.8 µM
CCc1ccc(OCC(=O)N/N=C/c2cc([N+](=O)[O-])ccc2N2CCOCC2)cc1 | 8.3 µM
O=C(Cn1sc2ccccc2c1=O)Nc1ccc(Cl)cc1 | 3.26 µM
Cc1ccc2nc(SCC(=O)NC3CCCc4ccccc43)[nH]c2c1 (stereo not drawn) | 9.6 µM
CCn1c(SCC(=O)Nc2ccccc2OC)nnc1-c1cnccn1 | inactive

SMILES | IC50
O=C(OCC(=O)c1ccc([N+](=O)[O-])cc1)/C(=C\c1ccc(Cl)cc1)NC(=O)c1ccccc1 | inactive
CN1C(=O)CSc2ccc(NC(=O)N3CCc4ccccc43)cc21 | 15.2 µM
Cn1c(=O)[nH]c(=O)c2c1nc([N+](=O)[O-])n2Cc1ccccc1 | 3.16 µM
COc1cc(N)c2ncccc2c1Cl | 6.92 µM
COc1ccc(NC(=S)N(CCC(C)C)C2CCN(C(C)C)CC2)cc1Cl | 14.3 µM
c1nc(SSc2ncnc3nc[nH]c23)c2[nH]cnc2n1 | 4.78 µM
CCN1/C(=C/C=C/C=C/C=C/c2sc3ccccc3[n+]2CC)Sc2ccccc21 | 7.54 µM
CCCCCCCCn1sccc1=O | 3.75 µM
COc1cc(NCc2ccccc2)c2ncn(Cc3ccccc3)c2c1 | > 80 µM (inactive)
COc1ccc(CN(C)S(=O)(=O)c2nnc(NC(=O)c3ccc(C)cc3)s2)cc1OC | 7.6 µM
Cc1cc(N=NC(=O)c2ccccc2O)c2ccccc2c1O | inactive
CCN(CC)C(=S)SSC(=S)N(CC)CC | 10.1 µM
CC1(C)CC2(CC(c3ccccc3F)c3ccc(O)c(O)c3O2)NC(=S)N1 (stereo not drawn) | 12.8 µM
Cc1nn(-c2ccccc2)c(Cl)c1/C=N/Nc1nc2ccccc2n1C | 13.3 µM
CCN(CC)CCn1c2ccccc2c(=O)c2c(O)ccc(O)c21 | 2.39 µM
Cc1ccc(S(=O)(=O)N(C)C)cc1NC(=O)CSc1nc2ncc(Cl)cc2[nH]1 | 12.1 µM
CC1CN(c2ccccc2)NC1=O (stereo not drawn) | 2.34 µM
COc1cccc2nc3cc(C)c(C)cc3nc12 | 4.69 µM
N#CC(C#N)=C1C=CC=CN1/C(=C\c1ccccc1Cl)C(=O)c1ccccc1 | 8.31 µM
CC1CCc2[nH]c3ccc(C(=O)N(C)CC(=O)Nc4ccccc4C(F)(F)F)cc3c2C1 (stereo not drawn) | 5.61 µM
O=[N+]([O-])c1ccc2c(c1)-c1ccccc1C2O (stereo not drawn) | 2.46 µM
CCN1CCN(C(=S)c2ccc(O)cc2)CC1 | inactive
CCn1c(SCc2nc3scc(-c4ccccc4)c3c(=O)[nH]2)nnc1-c1cccs1 | 17.3 µM
